The text below walks through data of patent US9611230B2, “1,3,4-oxadiazole benzoic acid compounds and their use for nonsense suppression and the treatment of disease” (PTC Therapeutics, Inc., priority 2004, dated 2017).

Where only a bound is given, the exact number is not on record here.

As to `CC(C)c1ccc(-c2nc(-c3cccc(C(=O)O)c3)cs2)cc1` [Compound No. 312, 3-[2-(4-isopropylphenyl)thiazol-4-yl]-benzoic acid], the melting point lay in the range of 193 to 195 °C.
Take `O=C(O)c1cccc(-c2ncc(-c3cccc(OC(F)(F)F)c3)o2)c1` [Compound 587]: the melting point lay in the range of 210 to 211 °C.
Regarding `CN(C)c1ccc(-c2nnc(-c3ccccc3C(=O)O)o2)cc1` [Compound 606], the melting point is 197 to 200 °C.
Take `O=C(O)c1cccc(-c2cc(-c3ccc(F)cc3)on2)c1` [Compound 476]: the melting point is 266.5 to 268 °C.
As for `Cc1ccc(-c2n[nH]c(-c3cccc(C(=O)O)c3)n2)cc1` [Compound 457], the figure is greater than 300 °C; as for `COc1ccc(-c2cc(-c3ccc(C(=O)O)cc3)no2)cc1` [Compound 532], 298 to 300 °C; as for `CCOc1ccc(-c2cnc(-c3ccc(C(=O)O)cc3)o2)cc1` [Compound 638], 245 to 246 °C.
As for `O=C(O)c1ccc(-c2ncc(-c3ccc(Br)cc3)o2)cc1` [Compound 642], the figure is 259 to 261 °C; as for `CN(C)c1ccccc1-c1nnc(-c2ccccc2C(=O)O)o1` [Compound 610], 180 to 183 °C; as for `O=C(O)c1cccc(-c2ncc(-c3cccc(C(F)(F)F)c3)o2)c1` [Compound 585], 250 to 251.5 °C.
As for `O=C(O)c1cccc(-c2ncc(-c3ccccc3Cl)o2)c1` [Compound 582], the figure is 236 to 237 °C.
For `O=C(O)c1cccc(-c2nnc(-c3ccccc3)o2)c1` [Compound 615], the melting point was in the range of 190 to 192 °C.
As for `CC(C)c1ccc(-c2nnc(-c3ccc(C(=O)O)cc3)o2)cc1` [Compound 5], the figure is 262 to 265 °C.
The molecule `O=C(O)c1ccc(-c2ncc(-c3ccc(Cl)cc3)o2)cc1` [Compound 639] had a melting point of 260 to 263 °C.
As for `O=C(O)c1cccc(-c2cc(-c3cccc(F)c3)no2)c1` [Compound 502], the figure is 264 to 265 °C; as for `O=C(O)c1cccc(-c2cc(-c3ccccc3F)on2)c1` [Compound 463], 221 to 222 °C; as for `CN(C)c1ccc(Cc2nnc(-c3cccc(C(=O)O)c3)o2)cc1` [Compound 85], 220 to 222 °C.
As for `O=C(O)c1cccc(-c2nc(-c3ccccc3F)n[nH]2)c1` [Compound 425], the figure is greater than 310 °C; as for `O=C(O)c1cccc(-c2nc(-c3ccccc3)n[nH]2)c1` [Compound 427], greater than 300 °C; as for `O=C(O)c1cccc(-c2nc(-c3cccs3)n[nH]2)c1` [Compound 462], 282 to 285 °C.
As for `CC(C)c1ccc(-c2ncc(-c3cccc(C(=O)O)c3)[nH]2)cc1` [Compound No. 311, 3-[2-(4-isopropylphenyl)-3H-imidazol-4-yl]benzoic acid], the figure is 283 to 285 °C.
`CC(C)c1ccc(-c2nc(-c3cccc(C(=O)O)c3)ns2)cc1` [Compound No. 323, 3-[5-(4-isopropylphenyl)-[1,2,4]thiadiazol-3-yl]-benzoic acid]: the melting point lay in the range of 165 to 167 °C.
Turning to `Cc1cccc(-c2ccc(-c3nnc(-c4cccc(C(=O)O)c4)o3)cc2)c1` [Compound No. 281, 3-[5-(3′-methylbiphenyl-4-yl)-[1,3,4]oxadiazol-2-yl]benzoic acid], the melting point was 240 to 242 °C.
As for `CC(C)c1ccc(-c2nnc(-c3cccc(C(=O)O)c3Cl)o2)cc1` [Compound 401], the figure is 152 to 155 °C; as for `O=C(O)c1ccc(-c2ncc(-c3cccc(OC(F)(F)F)c3)o2)cc1` [Compound 542], 284 to 285 °C; as for `CC(C)c1cccc(-c2cnc(-c3ccc(C(=O)O)cc3)o2)c1` [Compound 644], 236 to 237 °C.
As for `O=C(O)c1ccc(-c2ncc(-c3ccc(Oc4ccccc4)cc3)o2)cc1` [Compound 647], the figure is 220 to 222 °C.
As for `O=C(O)c1ccc(-c2ncc(-c3ccc(F)cc3)o2)cc1` [Compound 554], the figure is 245 to 246 °C; as for `O=C(O)c1cccc(-c2noc(-c3ccccc3)c2CO)c1` [Compound 484], 215 to 216 °C.
`O=C(O)c1cccc(-c2nnc(-c3ccc(Br)nc3)o2)c1` [Compound 293] came in with a melting point of 274 to 275 °C.
As for `COc1ccc(-c2n[nH]c(-c3cccc(C(=O)O)c3)n2)cc1OC` [Compound 460], the figure is 275 to 278 °C.
Regarding `O=C(O)c1ccc(-c2ncc(-c3ccc(F)c(F)c3)o2)cc1` [Compound 640], the melting point lay in the range of 291 to 292 °C.
As for `O=C(O)c1cccc(-c2nnc(-c3ccc(Cl)nc3)o2)c1` [Compound 222], the figure is 278 to 282 °C; as for `CS(=O)(=O)Nc1cccc(-c2nnc(-c3ccc(C(=O)O)cc3)o2)c1` [Compound 12], greater than 270 °C; as for `O=C(O)c1cccc(-c2cc(-c3ccc(Cl)cc3)no2)c1` [Compound No. 503, 3-[3-(4-chlorophenyl)isoxazol-5-yl]benzoic acid], 265 to 266 °C.
`O=C(O)c1ccc(-c2cc(-c3ccc(Cl)cc3)on2)cc1` [Compound 533] had a melting point of 273 to 275 °C.
For `CC(C)c1ccc(-c2csc(-c3cccc(C(=O)O)c3)n2)cc1` [Compound No. 289, 3-[4-(4-isopropylphenyl)thiazol-2-yl]-benzoic acid], the melting point was 206 to 208 °C.
`Cc1ccccc1-c1cnc(-c2ccc(C(=O)O)cc2)o1` [Compound 643] had a melting point of 284 to 286 °C.
As for `COc1ccc(-c2cnc(-c3ccc(C(=O)O)cc3)o2)cc1OC` [Compound 547], the figure is 241 to 243 °C; as for `O=C(O)c1cccc(-c2nc(-c3ccc(Br)cc3)n[nH]2)c1` [Compound 423], 309 to 311 °C; as for `Cc1ccc(-c2cc(-c3ccc(C(=O)O)cc3)no2)cc1` [Compound 534], 297.5 to 299 °C.
Molecule `O=C(O)c1cccc(-c2nnc(-c3c[nH]c4ccccc34)o2)c1` [Compound 319] gave a melting point of 304 to 320 °C.
As for `O=C(O)c1ccc(-c2ncc(-c3cc(F)ccc3F)o2)cc1` [Compound 630], the figure is 301 to 302 °C; as for `CCOc1ccc(-c2n[nH]c(-c3cccc(C(=O)O)c3)n2)cc1` [Compound 461], 295 to 298 °C; as for `COc1cccc(-c2cnc(-c3ccc(C(=O)O)cc3)o2)c1` [Compound 544], 240 to 242 °C.
As for `O=C(O)c1ccc(-c2ncc(-c3cccc(Cl)c3)o2)cc1` [Compound 556], the figure is 272 to 274 °C; as for `CN(C)C(=O)c1ccc(-c2nnc(-c3cccc(C(=O)O)c3)o2)cc1` [Compound 279], 228 to 235 °C.
As for `O=C(O)c1ccc(-c2cc(-c3ccc(F)cc3F)no2)cc1` [Compound 538], the figure is 324 to 326 °C; as for `COc1ccc(-c2n[nH]c(-c3cccc(C(=O)O)c3)n2)cc1` [Compound No. 424, 3-[5-(4-methoxy-phenyl)-2H-[1,2,4]triazol-3-yl]-benzoic acid], 287 to 289 °C; as for `O=C(O)c1cccc(-c2ncc(-c3ccc(F)cc3)o2)c1` [Compound 581], 255 to 256 °C.
As to `O=C(O)c1cccc(-c2ncc(-c3cccc(F)c3)o2)c1` [Compound 580], the melting point is 223 to 224.5 °C.
Regarding `Cc1cccc(-c2cnc(-c3cccc(C(=O)O)c3)o2)c1` [Compound 589], the melting point lay in the range of 194 to 195 °C.
As for `COc1ccc(-c2cnc(-c3ccc(C(=O)O)cc3)o2)cc1` [Compound 637], the figure is 249 to 251 °C; as for `CC(C)(C)C1CCC(c2nnc(-c3ccc(C(=O)O)cc3)o2)CC1` (stereo not drawn) [Compound 621], 258 to 261 °C; as for `O=C(O)c1cccc(-c2cc(-c3ccc(F)cc3)no2)c1` [Compound 504], 273 to 274.5 °C.
As for `COc1cccc(-c2cc(-c3cccc(C(=O)O)c3)no2)c1` [Compound 481], the figure is 201 to 203 °C.
As for `CCc1ccc(-c2cnc(-c3cccc(C(=O)O)c3)o2)cc1` [Compound 590], the figure is 174 to 175 °C.
The molecule `O=C(O)c1cccc(-c2ncc(-c3ccccc3C(F)(F)F)o2)c1` [Compound 584] registered a melting point of 218 to 219 °C.
For `O=C(O)c1cccc(-c2noc(-c3ccccc3)c2C=NO)c1` [Compound 486], the melting point is 198 to 202 °C.
As for `O=C(O)c1cccc(-c2ncc(-c3ccccc3F)o2)c1` [Compound 579], the figure is 228 to 229 °C; as for `N#Cc1c(-c2cccc(C(=O)O)c2)noc1-c1ccccc1` [Compound 487], 249 to 250 °C.
As for `Cc1ccc(-c2cc(-c3ccc(C(=O)O)cc3)on2)cc1` [Compound 541], the figure is 307 to 308 °C.
As for `Cc1ccccc1-c1cnc(-c2cccc(C(=O)O)c2)o1` [Compound 588], the figure is 207 to 208 °C.
Consider `Cc1ccc(S(=O)(=O)Nc2cccc(-c3nnc(-c4ccc(C(=O)O)cc4)o3)c2)cc1` [Compound 13, 4-{5-[3-(toluene-4-sulfonylamino)phenyl]-[1,3,4]oxadiazol-2-yl}benzoic acid], for which the melting point was greater than 275 °C.
As to `CN(C)c1cc(-c2nnc(-c3ccc(C(=O)O)cc3)o2)ccn1` [Compound 224], the melting point is 240 to 250 °C.
As for `CC(C)c1ccc(-c2cc(-c3cccc(C(=O)O)c3)cs2)cc1` [Compound No. 348, 3-[5-(4-isopropylphenyl)thiophen-3-yl]benzoic acid], the figure is 208 to 209 °C; as for `O=C(O)c1ccc(-c2ncc(-c3ccc4c(c3)OCCO4)o2)cc1` [Compound 631], 308 to 309 °C.
As for `O=C(O)c1cccc(-c2nnc(-c3ccc(N4CCCCC4)cc3)o2)c1` [Compound 83], the figure is 275 to 277 °C; as for `CC(C)c1ccc(-c2cnc(-c3cccc(C(=O)O)c3)[nH]2)cc1` [Compound No. 277, 3-[5-(4-isopropylphenyl)-1H-imidazol-2-yl]benzoic acid], 296 to 298 °C.

For orientation: melting point means the temperature of the solid-liquid transition.
